Results from paper PMC8116589, “Distinguishing Signal From Noise in Immunopeptidome Studies of Limiting-Abundance Biological Samples: Peptides Presented by I-A^b in C57BL/6 Mouse Thymus” (Frontiers in Immunology, 2021).
Where no end group is shown, it is not given here. [ ]: non-standard residue; d: D form.

Each molecule was assayed against T1, I-A^b (Mus musculus, UniProt P14434+P14483) (assay: biochemical).
T1 sequence (P14434 24-218 limits assumed): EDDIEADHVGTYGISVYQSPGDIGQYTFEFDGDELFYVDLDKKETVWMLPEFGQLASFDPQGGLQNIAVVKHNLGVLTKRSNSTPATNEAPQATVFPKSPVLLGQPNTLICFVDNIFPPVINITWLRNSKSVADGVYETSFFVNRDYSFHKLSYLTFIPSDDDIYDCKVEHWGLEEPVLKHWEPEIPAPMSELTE
T1 sequence (P14483 28-226 limits assumed): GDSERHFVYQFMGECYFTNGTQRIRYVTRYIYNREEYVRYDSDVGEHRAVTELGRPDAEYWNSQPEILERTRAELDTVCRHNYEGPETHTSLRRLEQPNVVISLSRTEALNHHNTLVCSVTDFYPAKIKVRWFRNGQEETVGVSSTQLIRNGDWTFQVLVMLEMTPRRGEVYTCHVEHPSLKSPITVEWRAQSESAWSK
Experimental: A fluorescence polarization (FP) assay was used to measure the IC50 of using N-terminally-acetylated CLIP peptide labeled with Alexa Fluor 488 tetrafluorophenyl ester (Invitrogen, Carlsbad, CA) via the primary amine at K3 as probe peptide as previously described ([34]). The binding reactions were carried in buffer conditions of 100 mM sodium citrate, 50 mM sodium chloride, 0.1% octyl β-D-glucopyranoside, 5 mM ethylenediaminetetraacetic acid, 0.1% sodium azide, 0.2 mM iodoacetic acid, 1 mM dithiothreitol). […] Thrombin is added during all the reactions at a concentration of 1U/ug and inactivated after 3hrs of reaction using 0.1mM phenylmethanesulfonyl fluoride. […] For calculating IC50 values, 100 nM I-A^b-3R was incubated with 25 nM Alexa488-labeled CLIP probe peptide, in combination with a serial dilution of test peptides, beginning at 100 µM followed by 5-fold dilutions in presence of 0.5µM HLA-DM. The reaction mixture was incubated at 37°C. The capacity of each test peptide to compete for binding of probe peptide was measured by FP after 72 h at 37°C. The assay was read using a Victor X5 Multilabel plate reader (PerkinElmer, Shelton, CT). FP values were converted to fraction bound by calculating [(FP_sample - FP_free)/(FP_no_comp - FP_free)], where FP_sample represents the FP value in the presence of test peptide; FP_free represents the value for free Alexa488-conjugated CLIP peptide; and FP_no_comp represents values in the absence of competitor peptide. We plotted fraction bound versus concentration of test peptide and fit the curve to the equation y = 1/(1 +[pep]/IC50), where [pep] is the concentration of test peptide, y is the fraction of probe peptide bound at that concentration of test peptide, and IC50 is the 50% inhibitory concentration of the test peptide.

Point of comparison: GPPPYHESLAGASQPP, IC50 1.5 µM. Against it:
- ITPSYVAFTPEGERL — within 1.5-fold, 1.89 µM
- KPSIFHDAKSEIIKGHA — 3.3-fold higher, 4.96 µM
- GPGSREAASPVAITVQE — 3.2-fold lower, 0.467 µM
- AQRAGYKAAIVHNVDS — 1.6-fold higher, 2.42 µM
- TNPIITPVAQENQ — within 1.5-fold, 1.74 µM
- GIVNLKSPKTTSATKI — 8.5-fold higher, 12.8 µM
- SLRRLEQPNVVISLSR — 16-fold lower, 0.0938 µM
- IYEAYRQGQANLEAL [IYEAYRQGQANLEAL] — within 1.5-fold, 1.37 µM
- GALLLNAPVVSITQGR — within 1.5-fold, 1.66 µM
- RVTIAQGGVLPNIQ — 17-fold higher, 26 µM
- GTTGQLFFPEVNKNHR — 1.8-fold higher, 2.64 µM
- PGQGTTGQLFFPEVNKN — 1.9-fold higher, 2.9 µM
- AMLQVLGPKPALPEG — within 1.5-fold, 1.17 µM
- HNYEGPETHTSLRRL — 1.9-fold lower, 0.797 µM
- DGELTYENVQVSPVPGGPP — within 1.5-fold, 1.36 µM
- LPGELAKHAVSEGTKA — 21-fold higher, 32 µM
- LLPKYSFAKPSIVSDK — 8.4-fold lower, 0.179 µM
- QVLSWSSPVGSRTLA — 9.9-fold lower, 0.152 µM
- HIADLAGNPEVILPVPA — 9.3-fold higher, 13.9 µM
- GKYTYGKPVPGHVKI — 3.8-fold lower, 0.399 µM
- APGHYTYSSPHSGSIH — within 1.5-fold, 1.58 µM
- AGTGVDNVDLEAATR — 38-fold higher, 57.5 µM
- YVTQFHPPHIEIQ — within 1.5-fold, 1.07 µM
- HLNTYDGSHTLRVSQS — within 1.5-fold, 1.36 µM
- EKPVPAAPVPSPVAPAP — within 1.5-fold, 1.14 µM
- GIDPYDQPNAIYIER — 9-fold lower, 0.167 µM
- FPKPPSYNVATTLPSYDE — 6.5-fold lower, 0.231 µM
- AGKLQDQGPDVLLAKVS — 4-fold lower, 0.378 µM
- LPQEKYVTSAPMPEPG — 2.7-fold lower, 0.562 µM
- VGTARYMAPEVLESRM — 4.9-fold lower, 0.306 µM
- NDWTVDHPQTLFAWEG — 3.4-fold lower, 0.445 µM
- AAYLWVGAGASEAEKT — 5.4-fold lower, 0.276 µM
- PHPYPALTPEQKKELSDIAHRIVAPGKG — 7.3-fold higher, 10.9 µM
- NVLRIINEPTAAAIA — 4.5-fold lower, 0.337 µM
- VGTARYMAPEVLESR — 7.6-fold lower, 0.197 µM
- IRRYGVSQPDAVAAWK — 6-fold lower, 0.25 µM
- LSSGFSLEDPQTHSNRIY — 8.9-fold higher, 13.3 µM
- LNLPTGIPIVYEL — 36-fold higher, 54.4 µM
- ISKQEYDESGPSIVHR — 10-fold higher, 15.2 µM
- LVRYTQKAPQVSTPTLV — 2-fold lower, 0.765 µM
- KDITTVNFPPALASGGG — 1.5-fold lower, 0.97 µM
- SDLHAFSGSAAWDDS — within 1.5-fold, 1.09 µM
- VEEDAESEDEDEEDVKLLGMSGK — 74-fold higher, 111 µM
- GGSTDYNAAFISRLS — 3.3-fold higher, 4.96 µM
- ATVSWRAPTAQVESFR — 3.7-fold lower, 0.407 µM
- YSMGMHTYQVG — 49-fold higher, 74.1 µM
- APTSALGPKASPAPS — 1.5-fold higher, 2.3 µM
- ARYIYGKPVQGVAYTR — 9.8-fold lower, 0.153 µM
- GRKFVYAGSNSGVVQ — within 1.5-fold, 1.48 µM
- KPTVTVVSPLPNDSINPQP — 1.5-fold higher, 2.25 µM
- AVLLPKKSSATVGPKAPAVGK — 9.1-fold higher, 13.6 µM
- PSRYITPDQLADLYK — 1.9-fold higher, 2.91 µM
- SDLHAFSGSAAWDDSAG — within 1.5-fold, 1.92 µM
- RVLIPYQGPSSDYVVVK — 5.5-fold lower, 0.275 µM
- KWKALYTDPKSSETA — 2.3-fold higher, 3.45 µM

Each molecule was assayed against soluble I-A^b-3R, mouse MHC-II protein (recombinant I-A^b) (mouse) (assay: fluorescence polarisation; competition: 100 nM I-A^b-3R (3R cut off by thrombin, 1 U/ug), 25 nM Alexa488-labeled CLIP probe peptide, test peptide from 100 uM in 5-fold dilutions, 0.5 uM HLA-DM, read after 72 h at 37 C; 100 mM sodium citrate, 50 mM NaCl, 0.1% octyl glucoside, 5 mM EDTA, 1 mM DTT; three independent experiments, mean and SD).

Point of comparison: SDLHAFSGSAAWDDSAG, IC50 1.92 µM. Against it:
- LSSGFSLEDPQTHSNRIY [… (Heat shock protein HSP 90-beta peptide)] — 6.9-fold higher, 13.3 µM
- APTSALGPKASPAPS [… (CCR4-NOT transcription complex subunit 3 peptide)] — within 1.5-fold, 2.3 µM
- LPQEKYVTSAPMPEPG [… (Ig mu chain C region peptide)] — 3.4-fold lower, 0.562 µM
- VGTARYMAPEVLESR — 9.7-fold lower, 0.197 µM
- RVLIPYQGPSSDYVVVK — 7-fold lower, 0.275 µM
- ITPSYVAFTPEGERL [… (78 kDa glucose-regulated protein peptide)] — within 1.5-fold, 1.89 µM
- HIADLAGNPEVILPVPA — 7.2-fold higher, 13.9 µM
- PGQGTTGQLFFPEVNKN — 1.5-fold higher, 2.9 µM
- SLRRLEQPNVVISLSR — 20-fold lower, 0.0938 µM
- AMLQVLGPKPALPEG — 1.6-fold lower, 1.18 µM
- GTTGQLFFPEVNKNHR — within 1.5-fold, 2.64 µM
- AVLLPKKSSATVGPKAPAVGK [… (Histone H2AX peptide)] — 7.1-fold higher, 13.6 µM
- GRKFVYAGSNSGVVQ [… (Semaphorin-4D peptide)] — within 1.5-fold, 1.48 µM
- GIVNLKSPKTTSATKI [… (Tissue alpha-L-fucosidase peptide)] — 6.7-fold higher, 12.8 µM
- GPPPYHESLAGASQPP [… (Protein shisa-5 isoform 2 peptide)] — within 1.5-fold, 1.5 µM
- IYEAYRQGQANLEAL [… (Marginal zone B- and B1-cell-specific protein peptide)] — within 1.5-fold, 1.37 µM
- ARYIYGKPVQGVAYTR [… (Complement C4-B peptide)] — 13-fold lower, 0.153 µM
- SDLHAFSGSAAWDDS — 1.8-fold lower, 1.09 µM
- KPTVTVVSPLPNDSINPQP [… (Protein EVI2B peptide)] — within 1.5-fold, 2.25 µM
- LVRYTQKAPQVSTPTLV [… (Serum albumin peptide)] — 2.5-fold lower, 0.765 µM
- GKYTYGKPVPGHVKI [… (Murinoglobulin-1 peptide)] — 4.8-fold lower, 0.399 µM
- VGTARYMAPEVLESRM — 6.3-fold lower, 0.306 µM
- TNPIITPVAQENQ [… (Apolipoprotein E peptide)] — within 1.5-fold, 1.74 µM
- AAYLWVGAGASEAEKT — 7-fold lower, 0.276 µM
- VEEDAESEDEDEEDVKLLGMSGK [… (Nucleophosmin peptide)] — 58-fold higher, 111 µM
- KWKALYTDPKSSETA [… (Retinoid-inducible serine carboxypeptidase peptide)] — 1.8-fold higher, 3.45 µM
- HLNTYDGSHTLRVSQS [… (T-lymphocyte surface antigen Ly-9 peptide)] — within 1.5-fold, 1.36 µM
- LEISYTGSRPASN[code m]V (not fully specified; printed as LEISYTGSRPASNmV (Murinoglobulin-1 peptide)) […mV (Murinoglobulin-1 peptide)] — 5.5-fold lower, 0.349 µM
- PSRYITPDQLADLYK — 1.5-fold higher, 2.91 µM
- EKPVPAAPVPSPVAPAP [… (Hematological and neurological expressed 1 protein peptide)] — 1.7-fold lower, 1.14 µM
- GGSTDYNAAFISRLS [… (Protein Ighv2-2 peptide)] — 2.6-fold higher, 4.96 µM
- GPGSREAASPVAITVQE [… (Fc receptor-like A peptide)] — 4.1-fold lower, 0.467 µM
- HNYEGPETHTSLRRL — 2.4-fold lower, 0.797 µM
- GIDPYDQPNAIYIER — 11-fold lower, 0.167 µM
- KDITTVNFPPALASGGG [… (Protein Igha peptide)] — 2-fold lower, 0.97 µM
- AGKLQDQGPDVLLAKVS [… (Inter alpha-trypsin inhibitor, heavy chain 4 peptide)] — 5.1-fold lower, 0.378 µM
- KPSIFHDAKSEIIKGHA [… (Platelet endothelial cell adhesion molecule isoform 4 peptide)] — 2.6-fold higher, 4.96 µM
- QQLAFKQPSSAYAAFN [q… (Complement C3 peptide)] — 11-fold lower, 0.17 µM
- YVTQFHPPHIEIQ [… (Beta-2-microglobulin peptide)] — 1.8-fold lower, 1.07 µM
- APGHYTYSSPHSGSIH [… (Prostaglandin-H2 D-isomerase isoform 2 peptide)] — within 1.5-fold, 1.58 µM
- GALLLNAPVVSITQGR [… (L-amino-acid oxidase isoform 2 peptide)] — within 1.5-fold, 1.67 µM
- FPKPPSYNVATTLPSYDE [… (NEDD4 family-interacting protein 1 peptide)] — 8.3-fold lower, 0.231 µM
- LLPKYSFAKPSIVSDK [… (Complement receptor type 2 peptide)] — 11-fold lower, 0.179 µM
- DGELTYENVQVSPVPGGPP [… (B-cell differentiation antigen CD72 peptide)] — within 1.5-fold, 1.36 µM
- ATVSWRAPTAQVESFR [… (Tenascin peptide)] — 4.7-fold lower, 0.407 µM
